In a melting point compilation (Tetko et al.; mined from patent text by program, amines drawn as free bases though some values may be those of a salt):

First: CCCCc1c(C(=O)OCC)[nH]c2cccc(SC)c2c1=O
Second: CCCCCCCCCCC1COc2c(C(=O)OCC)sc(C(=O)OCC)c2O1 (stereo not drawn)
The melting point of the first is lower: 80 °C for the first, 89 to 90 °C for the second.

First: CCOc1nn(-c2cc(C(F)(F)F)ccn2)cc1CCCO
Second: CCOc1cc(OCCCc2cn(-c3cc(C(F)(F)F)ccn3)nc2OCC)ccc1CCC(=O)OC
The melting point of the first is lower: 73 to 74 °C for the first, 79 to 81 °C for the second.

Compared with `CCCCn1c(COCC)nc2c(N)nc3ccc(-c4ccccc4)cc3c21`, `CCOC(=O)c1c(OC)c2ccccc2c2nc3ccccc3nc12` is lower in melting point: 186 to 187 °C for the first, 155 to 157 °C for the second.

First: CCCCOc1cc2cc(CO)c(CO)c(-c3ccnc(NN)c3)c2cc1OC
Second: COc1cc(Nc2nccc(-c3cccc(Br)c3)n2)cc(OC)c1OC
The melting point of the first is lower: 93 to 97 °C for the first, 145 °C for the second.

First: COc1ccc2c(c1)C(=O)c1c-2c(N2CCN(CC3CO3)CC2)nc2ccccc12 (stereo not drawn)
Second: c1ccc2[nH]c(CN3CCN(c4nccs4)CC3)nc2c1
The melting point of the first is lower: 138 to 139 °C for the first, 203 to 205 °C for the second.

Compared with `COC(=O)c1ccc(OC)c(NC(=NCl)c2ccc(Cl)cc2Cl)c1`, `O=S(=O)(Nc1ccc(Cl)cc1-c1cc(-c2ccc(Cl)cc2Cl)on1)C(F)(F)F` is higher in melting point: 120 °C for the first, 142 to 144 °C for the second.

First: Cn1nnc2cc(C(O)c3ccccc3)ccc21 (stereo not drawn)
Second: O=C(Cl)COc1nn(Cc2ccccc2)c2ccccc12
The melting point of the first is higher: 129 °C for the first, 78 to 79 °C for the second.

First: CON(c1ccc([N+](=O)[O-])cc1[N+](=O)[O-])S(=O)(=O)c1ccccc1Cl
Second: Cc1c([N+](=O)[O-])ccc(OCc2ccccc2)c1Cl
The melting point of the first is higher: 112 to 114 °C for the first, 73 to 74.5 °C for the second.

First: O=C1NC(=S)SC1=Cc1ccc2c(c1)N(CCc1cccc(Cl)c1)C(=O)CO2
Second: CCCN(CCCc1c[nH]c2ccc(Cl)cc12)C1COc2c(F)ccc(C(N)=O)c2C1 (stereo not drawn)
The melting point of the first is higher: 280 to 282 °C for the first, 148 to 154 °C for the second.

`Cn1cc(O)c(=O)c2ccc(F)cc21` and `O=c1c(-c2ccccc2O)coc2cc(O)c(Cl)cc12` cannot be ordered by melting point: 283 to 285 °C for the first, over 250 °C for the second.

`Nc1cc(=O)n(Cc2ccc(I)cc2)[nH]1` and `COn1cc(C(=O)NCc2ccc(Cl)cc2)c(=O)c2ccccc21` cannot be ordered by melting point: 158 °C for the first, 155 to 160 °C for the second.

First: CCCCc1nn(-c2ccccc2C(F)(F)F)c(=O)n1Cc1ccc(-c2ccccc2S(=O)(=O)NC(=O)C(c2ccccc2)c2ccccc2)cc1
Second: OCCCc1cn(C(c2ccccc2)(c2ccccc2)c2ccccc2)cn1
The melting point of the first is higher: 144 to 146 °C for the first, 130 °C for the second.

First: CC1(C)C(=O)N(c2ccc([N+](=O)[O-])c(C(F)(F)F)c2)C(=O)N1CCCCCN1C(=O)N(c2ccc([N+](=O)[O-])c(C(F)(F)F)c2)C(=O)C1(C)C
Second: Cn1c(C(=O)OCc2cc(C(F)(F)F)cc(C(F)(F)F)c2)c(-c2ccccc2)c2ccccc2c1=O
The melting point of the first is higher: 163 to 164 °C for the first, 153 to 154 °C for the second.

Compared with `COc1ccc2c(c1)C(=O)NCCS2`, `NNc1ccc2c(c1)CCNC2=O` is lower in melting point: 164 to 166 °C for the first, 158 to 160 °C for the second.

First: Cn1ncc(C(=O)N2CC(F)C2)c1C(=O)Nc1ccn2nc(-c3ccccc3)nc2c1
Second: Cc1nc2c3c(c(C(=O)NN4CC4)cc2n1C)CCC(c1ccccc1)N3 (stereo not drawn)
The melting point of the first is higher: 259 to 262 °C for the first, 192 to 193 °C for the second.

Compared with `Cc1ccc(CC2CCN(CCOc3ccc4cc(O)ccc4c3)CC2)cc1`, `CCC1(c2cccc(OCc3ccc4c(ccc(=O)n4C)c3)c2)CCOCC1` is lower in melting point: 164 to 166 °C for the first, 139 °C for the second.

First: COC(=O)C1=C(C)NC(=O)N(C(C)=O)C1c1ccccc1 (stereo not drawn)
Second: COC(=O)C1=C(C)NC(C)=C(C(=O)N2CCC3(CC2)CC(=O)N(OC)C3=O)C1c1cccc([N+](=O)[O-])c1 (stereo not drawn)
The melting point of the first is lower: 156 to 159 °C for the first, 228 to 230 °C for the second.

Compared with `O=C1Nc2cccc(Cl)c2C(=O)N2C=CC[C@@H]12`, `Nc1cc(Cl)c(F)cc1-c1cccc(Cl)c1` is lower in melting point: 249 to 251 °C for the first, 58 °C for the second.

First: COC(=O)c1cc(OC)cc(OC)c1N
Second: COC(=O)C(CC(=O)O)Cc1ccc(OC)c(OC)c1 (stereo not drawn)
The melting point of the first is lower: 93 to 95 °C for the first, 104 to 107 °C for the second.

First: Nc1cccc(C(=O)c2ccc(-c3ccc(C(=O)c4cccc(N)c4)cc3)cc2)c1
Second: COC(=O)c1ccc(-c2nccc3ccn(S(=O)(=O)c4ccc(OC)cc4)c23)cc1
The melting point of the first is higher: 217 to 218 °C for the first, 144 to 146 °C for the second.

First: CCCCCCCCCCCCCCCCCC(=O)CO
Second: CCCCCCCCCCCCn1nnc(C(C(=O)O)c2ccccc2)n1 (stereo not drawn)
The melting point of the first is higher: 78 to 80 °C for the first, 55 to 57 °C for the second.

First: CNc1nc(Nc2ccc(Cl)cc2F)ncc1N1CCNC1=O
Second: CC(C)CCn1cc(-c2cnc3c(c2)N(Cc2c(F)ccc(F)c2Cl)CCN3)cn1
The melting point of the first is higher: 249 °C for the first, 134 °C for the second.

Compared with `CC12CC3CC(C1)CC(CC(O)C(c1cccc(Cl)c1)n1ccnc1)(C3)C2` (stereo not drawn), `CCC1(CCCCCN2CCN(c3ccccn3)CC2)C(=O)Nc2ccccc21` (stereo not drawn) is higher in melting point: 126 °C for the first, 127 to 128 °C for the second.

Compared with `Cc1ccc(CC(NCc2ccc(O)cc2)c2ccccc2)cc1` (stereo not drawn), `O=C(Nc1ccc(O)cc1)C(=O)N1CCC(Cc2ccccc2)CC1` is higher in melting point: 129 to 130 °C for the first, 167 to 169 °C for the second.

Compared with `NC(=S)Nc1ccc(Cl)c(Cl)c1Cl`, `O=C(O)Cc1cc(Cl)cc(Cl)c1Cl` is higher in melting point: 115 to 117 °C for the first, 125 to 133 °C for the second.

First: Cc1nc(O)c([N+](=O)[O-])c(N2CCc3cncnc3CC2)n1
Second: Cc1nc(N2CCc3ccccc3CC2)c(C#N)c(=O)n1CCN(C)C
The melting point of the first is higher: over 200 °C for the first, 134 to 139 °C for the second.

First: CC(C)(C)COc1cccc(C[C@@H](NC(=O)c2ccc(F)c3ccccc23)[C@@H](O)c2cccc(Cl)c2)c1 (racemic)
Second: CC(C)(C)c1cc(C(=O)Nc2ccccc2NC(=O)N(Cc2ccccc2)Cc2ccccc2)cc(C(C)(C)C)c1O
The melting point of the first is lower: 165 to 166 °C for the first, 187 to 189 °C for the second.

Compared with `N#Cc1ccc(C=CCCC(=O)O)cc1`, `CC(C)(C)COc1ccc(-n2cc(C(=O)O)cn2)cc1C#N` is higher in melting point: 154 to 156 °C for the first, 199 to 200 °C for the second.

Compared with `C[C@@H](N1CC(=O)N(c2ccc(F)cc2F)C1=O)[C@@]1(c2ccc(F)cc2F)CO1`, `Nc1nc(-n2cc(C(=O)O)c(=O)c3cc(F)c(F)c(Cl)c32)ccc1F` is higher in melting point: 124 to 125 °C for the first, 232 to 235 °C for the second.

First: CCC(=O)NCCSC(=O)CC
Second: CCCc1nc(C(=O)CC)c(C)[nH]1
The melting point of the first is lower: 48 to 49 °C for the first, 63 to 67 °C for the second.

First: O=[N+]([O-])C=Cc1cc(OCc2ccccc2)c(OCc2ccccc2)cc1[N+](=O)[O-]
Second: O=C(O)c1ccccc1OCCCCCOc1ccccc1C(=O)O
The melting point of the first is higher: 162 to 164 °C for the first, 105 to 106 °C for the second.

First: CCc1cc(O)cc(O)c1
Second: CCOC(=O)c1cnc2cc(Br)c(F)cc2c1O
The melting point of the first is lower: 97 to 98 °C for the first, over 280 °C for the second.

First: CCCC1=C([N+](=O)[O-])C(c2ccccc2[N+](=O)[O-])c2c[nH]nc2N1 (stereo not drawn)
Second: CCOC(=O)N1CCC2=C(C1)SCC2(NC(=O)CN)C(=O)c1ccccc1Cl (stereo not drawn)
The melting point of the first is higher: 204 °C for the first, 95 to 97 °C for the second.

First: Cc1ccc(S(=O)(=O)NCCCCCCCCCCCn2c3c(c4ccccc4c2=O)C(=O)c2ccccc2-3)cc1
Second: CCCCCCCCCCOc1cc2oc3c(C(=O)O)cccc3c(=O)c2cc1CCC(=O)O
The melting point of the first is lower: 170 to 172 °C for the first, 180 to 182 °C for the second.

First: NC(=S)c1c(Cl)c(-c2cccnc2)n2c1CN(C(=O)Nc1ccc(F)cc1)CC2
Second: CS(=O)(=O)Nc1ccc(N2CCN(c3cc(N)ccn3)CC2)cc1
The melting point of the first is lower: 214 to 216 °C for the first, 225 to 227 °C for the second.

First: COc1cc(OC)nc(NC(=O)NS(=O)(=O)c2cc(Br)cc3c2OS(=O)(=O)C=C3)n1
Second: COc1cc(OC)nc(Oc2ccc3c(c2C(=O)O)OCO3)n1
The melting point of the first is higher: 204 to 209 °C for the first, 198 to 201 °C for the second.

Compared with `CS(=O)(=O)c1ccc([C@@H](CC2CCC(=O)CC2)C(=O)O)cc1Cl`, `Cc1nn(-c2cc(CC(Cl)C(=O)NC3CC3)c(Cl)cc2Cl)c(=O)n1C(F)F` (stereo not drawn) is higher in melting point: 129 to 131 °C for the first, 139 to 143 °C for the second.

First: N#Cc1nn(-c2c(Cl)cc(OC(F)(F)F)cc2Cl)c(N)c1I
Second: N#Cc1cc(C(F)(F)F)n(Cc2ccccc2)c1-c1ccc(Cl)cc1
The melting point of the first is higher: 150 °C for the first, 104 to 106 °C for the second.

Compared with `COc1cc(-c2nc(-c3ccc(N(C)C)cc3)c(C)s2)cc(OC)c1OC(C)=O`, `COc1cc(OC)c2c(=O)[nH]c(-c3ccc(OCCO)c(-c4ccccc4S(C)(=O)=O)n3)nc2c1` is lower in melting point: 247 to 249 °C for the first, 92 to 93 °C for the second.

First: O=C(CCl)Nc1sccc1C(O)c1ccccc1Cl (stereo not drawn)
Second: COc1ccc2ccc3c(c2c1)C=C(C(=O)O)CO3
The melting point of the first is lower: 118 to 120 °C for the first, 226 °C for the second.

Compared with `CCOC(=O)C1CN(S(C)(=O)=O)CCN1CC=CC(=O)Nc1cc2c(Nc3ccc(F)c(Cl)c3)ncnc2cc1OCC1CC1` (stereo not drawn), `CCCCCC(=O)NS(=O)(=O)CCc1cc(OCCCC)nn1Cc1ccc(Cl)cc1Cl` is lower in melting point: 170 to 173 °C for the first, 90 to 92 °C for the second.

First: Cc1cccc2c1n(CCS(C)(=O)=O)c(=O)n2C(=O)N[C@H](C(=O)N(C)C)C(C)(C)C
Second: Cc1ccccc1S(=O)(=O)NC(=O)c1ccc2c(c1)CCN2Cc1cccc([N+](=O)[O-])c1
The melting point of the first is higher: 191 °C for the first, 159 to 163 °C for the second.

First: CC[C@]12CC[C@H]3[C@@H](CC(Cl)C4=CC(=O)CC[C@@H]43)[C@@H]1C=CC2=O (stereo partly drawn)
Second: CCOc1cnccc1-c1nc2n(C3CCCC3)[nH]c(CC)c-2c(=O)n1
The melting point of the first is lower: 136 °C for the first, 179 to 180 °C for the second.

First: Cc1ccc(-n2ccc(C=O)c2)cc1
Second: COC(=O)c1cc(-c2cccc(C(F)(F)F)c2)c(=O)n2ccccc12
The melting point of the first is lower: 71 to 72 °C for the first, 147 to 148 °C for the second.

Compared with `CCCCC1CCC(c2ccc(C(=O)CC(=O)C(F)(F)F)cc2)CC1` (stereo not drawn), `CCCCCNS(=O)(=O)NC(=O)OCc1ccc(OCCOC)cc1Oc1ncc(C(F)(F)F)cc1Cl` is higher in melting point: 65 °C for the first, 153 to 155 °C for the second.

First: Oc1nsc2c1CCCC2
Second: NS(=O)(=O)c1cccc(C2(O)CCCC2)c1
The melting point of the first is higher: 157 to 158 °C for the first, 155 °C for the second.

First: CC(C)NC1=NS(=O)(=O)c2ccc(S(C)(=O)=O)cc2N1
Second: NS(=O)(=O)c1cc(C(=O)O)cc([N+](=O)[O-])c1Nc1cccc(C(F)(F)F)c1
The melting point of the first is higher: over 300 °C for the first, 213 to 215 °C for the second.

Compared with `NC(=O)c1cc([N+](=O)[O-])cnc1C(Br)Br`, `CCN(CC)CCNC(=O)c1cc(Cl)c(N)cc1OCC(OC)OC` is lower in melting point: 156 to 158 °C for the first, 64 to 67 °C for the second.

First: O=Cc1cn(C2CCc3ccccc3C2)c(=S)[nH]1 (stereo not drawn)
Second: C[C@H](N[C@@H]1CNC(=O)C12CC2)c1ccccc1
The melting point of the first is higher: 206 to 210 °C for the first, 107 to 110 °C for the second.
